Test results from publication PMC5458078, “Global mapping of CARM1 substrates defines enzyme specificity and substrate recognition” (Nature Communications, 2017).
Like-named read-outs stand apart in the source and are kept apart here.

Assays:
histone substrate = conditions: cited from earlier work
Text: page 18: We agree with the reviewer’s assertion that proteomic experiments generally suffer from the abundance bias. However, we, and others, argue that analyses of post-translational modifications are less affected by this issue, as the immunoprecipitation and other methods of PTM enrichment rely on the abundance of the PTM itself, not the protein that bears it, i.e., a strongly modified low abundance protein is as likely to be pulled down as a lowly modified high abundance protein.

MCF7 cells = experiment: Quantitative nanoLC-MS/MS (TMT) of ADMA-containing peptides, CARM1 KO vs parental; format: cell-based, human; parameters: Fold change KO/WT: scale not given here
MCF7 CARM1 KO cells = experiment: Quantitative MS of ADMA-containing peptides in MCF7 CARM1 KO cells expressing CARM1 28-608 or CARM1 140-608, and in CARM1 KO; format: cell-based, human
[1] = MCF7 CARM1 knockout vs wild type, 3 biological replicates each, values are on log2 scale
[2] = mean, CARM1 140-608 versus WT (log2 scale)
[3] = mean, CARM1 KO versus WT (log2 scale)
[4] = MCF7, CARM1 KO (KO1-KO3) vs wild type (WT1-WT3)
[5] = CARM1 140-608 vs WT, mean of 3 replicates (log2 scale)
[6] = KO vs WT, mean of 3 replicates (log2 scale)
[7] = difference of log2 means, CARM1 140-608 vs WT
[8] = difference of log2 means, KO vs WT
[9] = ADMA-containing peptide, CARM1 knockout (KO) vs wild type (WT) MCF7 cells, 6-plex TMT experiment #1, three biological replicates each, sheet "MCF7"
[10] = CARM1 KO vs wild type MCF7 cells, 3 biological replicates each
[11] = CARM1 140-608 versus WT, difference of mean log2 values
[12] = CARM1 KO versus WT, difference of mean log2 values
[13] = CARM1 140-608 versus WT, mean of three replicates (log2)
[14] = KO versus WT, mean of three replicates (log2)
[15] = ratio on log2 scale, mean of 3 replicates
[16] = ADMA-containing peptide, MCF7, CARM1 knockout (KO1-3) vs wild type (WT1-3), TMT 6-plex experiment #1
[17] = log2 scale ratio, mean of n = 3

Molecule: PRMT1: protein arginine methyltransferase 1
- Km (histone substrate; PRMT1, histone substrate, ref Pak et al., Biochem 2011): 4.2 µM

Molecule: QTGSPGMIYSTrYGSPK
- Fold change KO/WT (MCF7 cells; [1]): -3.282
- CARM1 140-608/WT (MCF7 CARM1 KO cells; [2]): -2.435
- KO/WT (MCF7 CARM1 KO cells; [3]): -3.403

Molecule: FIQPrPTLNQPPPPLIRPANSMPPR
- Fold change KO/WT (MCF7 cells; [4]): -1.409
- CARM1 140-608/WT (MCF7 CARM1 KO cells; [5]): 0.5669
- KO/WT (MCF7 CARM1 KO cells; [6]): -1.409

Molecule: QHLLLrGPPPGSANPPrLVSSYrLK
- Fold change KO/WT (MCF7 cells; [1]): -1.782
- CARM1 140-608/WT (MCF7 CARM1 KO cells; [7]): -1.091
- KO/WT (MCF7 CARM1 KO cells; [8]): -1.563

Molecule: APVFPGrGSYSNrGNYNR
- Fold change KO/WT (MCF7 cells; [1]): 0.06661
- CARM1 140-608/WT (MCF7 CARM1 KO cells; [2]): 0.3143
- KO/WT (MCF7 CARM1 KO cells; [3]): -0.1859

Molecule: AVCSTPLSSSLLGPPGTSALPrLSR
- Fold change KO/WT (MCF7 cells; [9]): -3.255
- CARM1 140-608/WT (MCF7 CARM1 KO cells; [7]): -2.222
- KO/WT (MCF7 CARM1 KO cells; [8]): -3.255

Molecule: QPPPLQQQArFIQPrPTLNQPPPPLIrPANSMPPR
- Fold change KO/WT (MCF7 cells; [4]): -1.373
- CARM1 140-608/WT (MCF7 CARM1 KO cells; [5]): 1.096
- KO/WT (MCF7 CARM1 KO cells; [6]): -1.373

Molecule: SHLSTAGGLAVPSLPTAGPYYSPYALYGQrLASASALGYQ
- Fold change KO/WT (MCF7 cells; [10]): -2.553
- CARM1 140-608/WT (MCF7 CARM1 KO cells; [11]): -2.31
- KO/WT (MCF7 CARM1 KO cells; [12]): -2.998

Molecule: GQPVGGLrFEGPHGQPVGGLrFDNPR
- Fold change KO/WT (MCF7 cells; [9]): -1.132
- CARM1 140-608/WT (MCF7 CARM1 KO cells; [13]): 0.02925
- KO/WT (MCF7 CARM1 KO cells; [14]): -0.8726

Molecule: SAPrLNTTNAWGAAPPSLGSQPLYR
- Fold change KO/WT (MCF7 cells; MCF7, CARM1 knockout vs wild type, n = 3 each): -1.593
- CARM1 140-608/WT (MCF7 CARM1 KO cells; [15]): -0.6132
- KO/WT (MCF7 CARM1 KO cells; [15]): -1.593

Molecule: GASQAGMTGYGMPrQIL
- Fold change KO/WT (MCF7 cells; [16]): -2.889
- CARM1 140-608/WT (MCF7 CARM1 KO cells; [17]): -2.236
- KO/WT (MCF7 CARM1 KO cells; [17]): -2.889

Molecule: NPHTLGLSrYHPYGK
- Fold change KO/WT (MCF7 cells; [10]): -0.4466
- CARM1 140-608/WT (MCF7 CARM1 KO cells; [11]): -0.4138
- KO/WT (MCF7 CARM1 KO cells; [12]): -0.4466

Molecule: NrGAGGFGGGGGTR
- Fold change KO/WT (MCF7 cells; MCF7, CARM1 KO vs WT, three biological replicates each): -0.03405
- CARM1 140-608/WT (MCF7 CARM1 KO cells; CARM1 140-608 vs WT, mean of 3 replicates, log2): 0.06902
- KO/WT (MCF7 CARM1 KO cells; KO vs WT, mean of 3 replicates, log2): 0.4755

Molecule: TPTATTSGIrATLTPTVLAPrLPQPPQNPTNIQNFQLPPGMVLVR
- Fold change KO/WT (MCF7 cells; [16]): -3.04
- CARM1 140-608/WT (MCF7 CARM1 KO cells; [17]): 0.4964
- KO/WT (MCF7 CARM1 KO cells; [17]): -3.04

Molecule: EYFIPGTrLPPPTHGPQEYPPPPAVR
- Fold change KO/WT (MCF7 cells; [9]): -1.126
- CARM1 140-608/WT (MCF7 CARM1 KO cells; [7]): 0.04953
- KO/WT (MCF7 CARM1 KO cells; [8]): -1.295

Molecule: VGVPPQNPrPSLNSAPSPFNPQGQSQITDPR
- Fold change KO/WT (MCF7 cells; [4]): -2.569
- CARM1 140-608/WT (MCF7 CARM1 KO cells; [5]): -2.085
- KO/WT (MCF7 CARM1 KO cells; [6]): -2.569

Molecule: LQLGTPPPLLAArLVPPR
- Fold change KO/WT (MCF7 cells; [4]): -2.7388
- CARM1 140-608/WT (MCF7 CARM1 KO cells; [13]): -3.287
- KO/WT (MCF7 CARM1 KO cells; [14]): -5.072

Molecule: SGSNWGrGSNMNSGPPR
- Fold change KO/WT (MCF7 cells; [10]): 0.3426
- CARM1 140-608/WT (MCF7 CARM1 KO cells; [11]): 0.2533
- KO/WT (MCF7 CARM1 KO cells; [12]): 0.9633

B1: CARM1: coactivator-associated arginine methyltransferase 1 (protein)
chain: MAAAAAAVGPGAGGAGSAVPGGAGPCATVSVFPGARLLTIGDANGEIQRHAEQQALRLEVRAGPDSAGIALYSHEDVCVFKCSVSRETECSRVGKQSFIITLGCNSVLIQFATPNDFCSFYNILKTCRGHTLERSVFSERTEESSAVQYFQFYGYLSQQQNMMQDYVRTGTYQRAILQNHTDFKDKIVLDVGCGSGILSFFAAQAGARKIYAVEASTMAQHAEVLVKSNNLTDRIVVIPGKVEEVSLPEQVDIIISEPMGYMLFNERMLESYLHAKKYLKPSGNMFPTIGDVHLAPFTDEQLYMEQFTKANFWYQPSFHGVDLSALRGAAVDEYFRQPVVDTFDIRILMAKSVKYTVNFLEAKEGDLHRIEIPFKFHMLHSGLVHGLAFWFDVAFIGSIMTVWLSTAPTEPLTHWYQVRCLFQSPLFAKAGDTLSGTCLLIANKRQSYDISIVAQVDQTGSKSSNLLDLKNPFFRYTGTTPSPPPGSHYTSPSENMWNTGSTYNLSSGMAVAGMPTAYDLSSVIASGSSVGHNNLIPLANTGIVNHTHSRMGSIMSTGIVQGSSGAQGSGGGSTSAHYAVNSQFTMGGPAISMASPMSIPTNTMHYGS
modifications: left off: FLAG, end not stated, kept
- Km (histone substrate; CARM1, natural histone substrate, ref Jacques et al., 2016): 0.15 µM
